In experiment [1] the target is T1, mTSPO (recombinant mouse translocator protein) (Mus musculus, UniProt P50637). The experiment can be described thus: […] NMR competition with RF3458. The class given is binding.
Experiment [2] concerns the target T1, mTSPO (recombinant mouse translocator protein). The experiment can be described thus: […] NMR chemical shift titration. The experiment is classed as binding.

With `CC[C@@H](C)N(C)C(=O)c1cc2ccccc2c(-c2ccccc2Cl)n1` [(R)-PK 11195, 1-(2-Chlorophenyl)-N-methyl-N-(1-methylpropyl)-3-isoquinolinecarboxamide], the Ki in experiment [1] is ~90 µM.

Turning to `CN(C(=O)[C@H](Cc1ccc(F)cc1)NC(=O)c1ccccc1)c1ccccc1` [4b, RF3458], the Kd in experiment [2] was ~5 µM.

For orientation: Ki means the equilibrium dissociation constant of an inhibitor or competing ligand from its target. The term Kd denotes the constant that tells how readily two partners part at equilibrium.

For the origin of these results see paper doi:10.1101/2024.10.14.618300v1 (biorxiv, 2024).
